In assay [1] the target is T1, beta-catenin/TCF4 engagement (Homo sapiens, UniProt P35222).
T1 construct: expressed in transfected cells; host or cells: HEK293
T1 sequence (P35222 1-781): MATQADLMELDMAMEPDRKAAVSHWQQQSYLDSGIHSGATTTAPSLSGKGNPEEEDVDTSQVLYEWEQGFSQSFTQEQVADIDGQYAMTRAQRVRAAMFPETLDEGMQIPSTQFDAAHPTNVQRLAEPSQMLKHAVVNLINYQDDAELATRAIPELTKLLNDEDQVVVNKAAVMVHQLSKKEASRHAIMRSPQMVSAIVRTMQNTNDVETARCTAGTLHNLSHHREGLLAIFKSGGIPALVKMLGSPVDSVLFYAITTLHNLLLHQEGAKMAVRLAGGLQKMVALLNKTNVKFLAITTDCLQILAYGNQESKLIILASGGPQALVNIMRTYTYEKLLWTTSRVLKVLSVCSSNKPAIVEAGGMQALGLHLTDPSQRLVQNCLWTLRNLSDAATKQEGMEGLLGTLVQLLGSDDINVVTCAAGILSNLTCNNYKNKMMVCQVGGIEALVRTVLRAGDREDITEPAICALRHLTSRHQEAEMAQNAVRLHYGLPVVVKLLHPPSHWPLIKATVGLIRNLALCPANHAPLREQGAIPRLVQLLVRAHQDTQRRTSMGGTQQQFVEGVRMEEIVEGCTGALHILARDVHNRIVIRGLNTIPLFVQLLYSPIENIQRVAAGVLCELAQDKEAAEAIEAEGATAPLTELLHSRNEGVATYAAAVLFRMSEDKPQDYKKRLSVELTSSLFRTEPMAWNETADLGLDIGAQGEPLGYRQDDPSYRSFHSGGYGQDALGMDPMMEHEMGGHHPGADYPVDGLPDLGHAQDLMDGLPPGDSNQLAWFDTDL
Put plainly: Nano-BRET target engagement assay (B-cat-Halo & TCF4-Luc in HEK293 cells). It is filed as cell-based. For orientation: In BRET a luciferase serves as donor, and the signal depends on an acceptor being close.

Assay [2] deals with T2, full-length beta-Catenin (Uniprot ID P35222) (Homo sapiens, UniProt P35222).
T2 construct: 10 nM full-length beta-Catenin (Uniprot ID P35222)
T2 sequence (P35222 1-781): T1 sequence (P35222 1-781)
The experiment in a line: Fluorescence polarization IC50 (beta-catenin / 5FAM-TCF4 10-53 competition). It is filed as binding. Background: Polarisation of emitted light reports the rotation of a fluorescent probe.

Where [3] appears, read: absolute IC50, read-out: NanoBRET Abs IC50.
Setting [4] is: fluorescence polarization, read-out: beta-Catenin FP IC50.
[5] abbreviates: NanoBRET Abs IC50, absolute IC50.
Setting [6] is: beta-Catenin FP IC50, fluorescence polarization.
Setting [7] is: fluorescence polarization, beta-catenin, read-out: FP EC50.

Like-named read-outs stand apart in the source and are kept apart here.

As to `CC(=O)N1CCC[C@]12CC=CCCCC1(CCCC=CCCCOC(=O)N3CC[C@@](C(=O)N[C@@H](Cc4ccsc4)C(=O)N[C@@H](Cc4csc5ccccc45)C(=O)N[C@@H](CCC(N)=O)C(N)=O)(C3)NC(=O)[C@H](CC(C)C)NC(=O)[C@H](Cc3ccccc3)NC(=O)[C@H](C)NC(=O)[C@H](C)NC(=O)[C@H](Cc3cccc(C(=O)O)c3)NC(=O)[C@H](CC(=O)O)NC1=O)NC(=O)[C@H](CC(C)C)NC(=O)[C@H](CC(=O)O)NC2=O` (stereo partly drawn) [I-1406, Ac-PL3-Asp-Leu-B5-Asp-3COOHF-Ala-Ala-Phe-Leu-PyrS2-3Thi-BztA-Gln-NH2], the IC50 in assay [1] (setting [3]) was 5000 nM; in assay [2] (setting [4]), 6 nM.
The like results for `CCCC[C@@H]1NC(=O)[C@H](Cc2ccccc2)NC(=O)[C@H](C)NC(=O)[C@H](C)NC(=O)[C@H](Cc2cccc(C(=O)O)c2)NC(=O)[C@H](CC(=O)O)NC(=O)C2(CCCC=CCCCOC(=O)N3CC[C@@](C(=O)N[C@@H](Cc4ccsc4)C(=O)N[C@@H](Cc4csc5ccccc45)C(=O)N[C@@H](CCC(N)=O)C(N)=O)(C3)NC1=O)CCCC=CC[C@]1(CCCN1C(C)=O)C(=O)N[C@@H](CC(=O)O)C(=O)N[C@@H](CC(C)C)C(=O)N2` (stereo partly drawn) [I-1407, Ac-PL3-Asp-Leu-B5-Asp-3COOHF-Ala-Ala-Phe-nLeu-PyrS2-3Thi-BztA-Gln-NH2] were, in that order, 4200 nM and 5 nM.
Turning to `CCCC[C@@H]1NC(=O)[C@H](CC(=O)O)NC(=O)[C@]2(CC=CCCCC3(CCCC=CCCCOC(=O)N4CC[C@@](C(=O)N[C@@H](Cc5ccsc5)C(=O)N[C@@H](Cc5csc6ccccc56)C(=O)N[C@@H](CCC(N)=O)C(N)=O)(C4)NC(=O)[C@H](CCCC)NC(=O)[C@H](Cc4ccccc4)NC(=O)[C@H](C)NC(=O)[C@H](C)NC(=O)[C@H](Cc4cccc(C(=O)O)c4)NC(=O)[C@H](CC(=O)O)NC3=O)NC1=O)CCCN2C(C)=O` (stereo partly drawn) [I-1408, Ac-PL3-Asp-nLeu-B5-Asp-3COOHF-Ala-Ala-Phe-nLeu-PyrS2-3Thi-BztA-Gln-NH2], the IC50 in assay [1] (setting [3]) turned out to be 6000 nM; in assay [2] (setting [4]) it was 33 nM.
The like results for `CC(=O)N1CCC[C@]12CC=CCCCC1(CCCC=CCCCOC(=O)N3CC[C@@](C(=O)N[C@@H](Cc4ccsc4)C(=O)N[C@@H](Cc4csc5ccccc45)C(=O)N[C@@H](CC(C)C)C(N)=O)(C3)NC(=O)[C@H](CC(C)C)NC(=O)[C@H](Cc3ccccc3)NC(=O)[C@H](C)NC(=O)[C@H](C)NC(=O)[C@H](CC(=O)O)NC(=O)[C@H](CC(=O)O)NC1=O)NC(=O)[C@H](CC(C)(C)C)NC(=O)[C@H](CC(=O)O)NC2=O` (stereo partly drawn) [I-1409, Ac-PL3-Asp-Npg-B5-Asp-Asp-Ala-Ala-Phe-Leu-PyrS2-3Thi-BztA-Leu-NH2] were, in that order, 24000 nM and 74 nM.
Regarding `CC(=O)N1CCC[C@]12CC=CCCCC1(CCCC=CCCCOC(=O)N3CC[C@@](C(=O)N[C@@H](Cc4ccsc4)C(=O)N[C@@H](Cc4csc5ccccc45)C(=O)N[C@@H](CC(C)C)C(N)=O)(C3)NC(=O)[C@H](CC(C)C)NC(=O)[C@H](Cc3ccccc3)NC(=O)[C@H](C)NC(=O)[C@H](C)NC(=O)[C@H](CC(=O)O)NC(=O)[C@H](CC(=O)O)NC1=O)NC(=O)[C@H](CC(C)C)NC(=O)[C@H](CC(=O)O)NC2=O` (stereo partly drawn) [I-1410, Ac-PL3-Asp-Leu-B5-Asp-Asp-Ala-Ala-Phe-Leu-PyrS2-3Thi-BztA-Leu-NH2], the results for the IC50 in assay [1] (setting [5]) and in assay [2] (setting [6]) were 29300 nM and 80 nM, respectively.
On to `CCCC[C@@H]1NC(=O)[C@H](CC(=O)O)NC(=O)[C@]2(CC=CCCCC3(CCCC=CCCCOC(=O)N4CC[C@@](C(=O)N[C@@H](Cc5ccsc5)C(=O)N[C@@H](Cc5csc6ccccc56)C(=O)N[C@@H](CC(C)C)C(N)=O)(C4)NC(=O)[C@H](CC(C)C)NC(=O)[C@H](Cc4ccccc4)NC(=O)[C@H](C)NC(=O)[C@H](C)NC(=O)[C@H](CC(=O)O)NC(=O)[C@H](CC(=O)O)NC3=O)NC1=O)CCCN2C(C)=O` (stereo partly drawn) [I-1411, Ac-PL3-Asp-nLeu-B5-Asp-Asp-Ala-Ala-Phe-Leu-PyrS2-3Thi-BztA-Leu-NH2], for which the values for the IC50 in assay [1] (setting [3]), in assay [2] (setting [7]) and in assay [2] (setting [4]) were 47100 nM, 109 nM and 109 nM, respectively.
`CCCC[C@@H]1NC(=O)[C@H](CC(=O)O)NC(=O)[C@]2(CC=CCCCC3(CCCC=CCCCOC(=O)N4CC[C@@](C(=O)N[C@@H](Cc5ccsc5)C(=O)N[C@@H](Cc5csc6ccccc56)C(=O)N[C@@H](CC(C)C)C(N)=O)(C4)NC(=O)[C@H](CC(C)C)NC(=O)[C@H](Cc4ccccc4)NC(=O)[C@H](C)NC(=O)[C@H](C)NC(=O)[C@H](CC(=O)O)NC(=O)[C@H](CC(=O)O)NC3=O)NC1=O)CCCN2C(C)=O` (stereo partly drawn) [I-1412, Ac-PL3-Asp-nLeu-B5-Asp-Asp-Ala-Ala-Phe-Leu-PyrS2-3Thi-BztA-Leu-NH2]: the IC50 in assay [1] (setting [3]) was greater than 20000 nM; in assay [2] (setting [7]), 79 nM; in assay [2] (setting [4]), 79 nM.
As for `CC(=O)N1CCC[C@]12CC=CCCCC1(CCCC=CCCCOC(=O)N3CC[C@@](C(=O)N[C@@H](Cc4ccsc4)C(=O)N[C@@H](Cc4csc5ccccc45)C(=O)N[C@@H](CC(C)C)C(N)=O)(C3)NC(=O)[C@H](CC(C)C)NC(=O)[C@H](Cc3ccccc3)NC(=O)[C@H](C)NC(=O)[C@H](C)NC(=O)[C@H](CC(=O)O)NC(=O)[C@H](CC(=O)O)NC1=O)NC(=O)[C@H](CO)NC(=O)[C@H](CC(=O)O)NC2=O` (stereo partly drawn) [I-1414, Ac-PL3-Asp-Ser-B5-Asp-Asp-Ala-Ala-Phe-Leu-PyrS2-3Thi-BztA-Leu-NH2], the IC50 was greater than 20000 nM in assay [1] (setting [5]) and 84 nM in assay [2] (setting [6]).
As to `CC(=O)N1CCC[C@]12CC=CCCCC1(CCCC=CCCCOC(=O)N3CC[C@@](C(=O)N[C@@H](Cc4ccccc4Cl)C(=O)N[C@@H](Cc4csc5ccccc45)C(=O)N[C@@H](CC(C)C)C(N)=O)(C3)NC(=O)[C@H](CC(C)C)NC(=O)[C@H](Cc3ccccc3)NC(=O)[C@H](C)NC(=O)[C@H](C)NC(=O)[C@H](CC(=O)O)NC(=O)[C@H](CC(=O)O)NC1=O)NC(=O)[C@H](CC(C)C)NC(=O)[C@H](CC(=O)O)NC2=O` (stereo partly drawn) [I-1418, Ac-PL3-Asp-Leu-B5-Asp-Asp-Ala-Ala-Phe-Leu-PyrS2-2C1F-BztA-Leu-NH2], the IC50 is greater than 20000 nM in assay [1] (setting [3]), 106 nM in assay [2] (setting [7]) and 106 nM in assay [2] (setting [4]).
On to `CC(=O)N1CCC[C@]12CC=CCCCC1(CCCC=CCCCOC(=O)N3CC[C@@](C(=O)N[C@@H](Cc4ccsc4)C(=O)N[C@@H](Cc4c[nH]c5ccccc45)C(=O)N[C@@H](CCC(N)=O)C(N)=O)(C3)NC(=O)[C@H](CC(C)C)NC(=O)[C@H](Cc3ccccc3)NC(=O)[C@H](C)NC(=O)[C@H](C)NC(=O)[C@H](CC(=O)O)NC(=O)[C@H](CC(=O)O)NC1=O)NC(=O)[C@H](CC(C)(C)C)NC(=O)[C@H](CC(=O)O)NC2=O` (stereo partly drawn) [I-1431, Ac-PL3-Asp-Npg-B5-Asp-Asp-Ala-Ala-Phe-Leu-PyrS2-3Thi-Trp-Gln-NH2], for which the IC50 in assay [1] (setting [3]) came to 14600 nM; in assay [2] (setting [7]) it was 34 nM; in assay [2] (setting [4]), 44 nM.
Regarding `CC(=O)N1CCC[C@]12CC=CCCCC1(CCCC=CCCCOC(=O)N3CC[C@@](C(=O)N[C@@H](Cc4ccsc4)C(=O)N[C@@H](Cc4c[nH]c5ccccc45)C(=O)N[C@@H](CO)C(N)=O)(C3)NC(=O)[C@H](CC(C)C)NC(=O)[C@H](Cc3ccccc3)NC(=O)[C@H](C)NC(=O)[C@H](C)NC(=O)[C@H](CC(=O)O)NC(=O)[C@H](CC(=O)O)NC1=O)NC(=O)[C@H](CC(C)(C)C)NC(=O)[C@H](CC(=O)O)NC2=O` (stereo partly drawn) [I-1432, Ac-PL3-Asp-Npg-B5-Asp-Asp-Ala-Ala-Phe-Leu-PyrS2-3Thi-Trp-Ser-NH2], the IC50 in assay [1] (setting [3]) was 14500 nM; in assay [2] (setting [4]), 27 nM.
The like results for `CC(=O)N1CCC[C@]12CC=CCCCC1(CCCC=CCCCOC(=O)N3CC[C@@](C(=O)N[C@@H](Cc4ccsc4)C(=O)N[C@@H](Cc4csc5ccccc45)C(=O)N[C@@H](CCC(N)=O)C(N)=O)(C3)NC(=O)[C@H](CC(C)C)NC(=O)[C@H](Cc3ccccc3)NC(=O)[C@H](C)NC(=O)[C@H](C)NC(=O)[C@H](CCC(=O)O)NC(=O)[C@H](CC(=O)O)NC1=O)NC(=O)[C@H](CC(C)(C)C)NC(=O)[C@H](CC(=O)O)NC2=O` (stereo partly drawn) [I-1437, Ac-PL3-Asp-Npg-B5-Asp-Glu-Ala-Ala-Phe-Leu-PyrS2-3Thi-BztA-Gln-NH2] were, in that order, 7100 nM and 7 nM.
With `CC(=O)N1CCC[C@]12CC=CCCCC1(CCCC=CCCCOC(=O)N3CC[C@@](C(=O)N[C@@H](Cc4ccsc4)C(=O)N[C@@H](Cc4csc5ccccc45)C(=O)N[C@@H](CCC(N)=O)C(N)=O)(C3)NC(=O)[C@H](CC(C)C)NC(=O)[C@H](Cc3ccccc3)NC(=O)[C@H](C)NC(=O)[C@H](C)NC(=O)[C@H](CCCC(=O)O)NC(=O)[C@H](CC(=O)O)NC1=O)NC(=O)[C@H](CC(C)(C)C)NC(=O)[C@H](CC(=O)O)NC2=O` (stereo partly drawn) [I-1438, Ac-PL3-Asp-Npg-B5-Asp-Aad-Ala-Ala-Phe-Leu-PyrS2-3Thi-BztA-Gln-NH2], the IC50 in assay [1] (setting [3]) came to 7400 nM; in assay [2] (setting [4]) it was 5 nM.

These data come from US20240116985A1, “STAPLED PEPTIDES AND METHODS THEREOF” (priority 2020, published 2024).
